Activity calls are given as the source filed them.
Key:
[1] = biological target: T1, Short transient receptor potential channel 4 (Mus musculus, UniProt Q9QUQ5); assay: TRPC4 positive allosteric modulators, dose response, cell-based, HEK293 TRPC4/mu-opioid, Fluo-4 calcium, EC20 DAMGO (AID 434941); type: functional
T1 sequence (Q9QUQ5 whole entry): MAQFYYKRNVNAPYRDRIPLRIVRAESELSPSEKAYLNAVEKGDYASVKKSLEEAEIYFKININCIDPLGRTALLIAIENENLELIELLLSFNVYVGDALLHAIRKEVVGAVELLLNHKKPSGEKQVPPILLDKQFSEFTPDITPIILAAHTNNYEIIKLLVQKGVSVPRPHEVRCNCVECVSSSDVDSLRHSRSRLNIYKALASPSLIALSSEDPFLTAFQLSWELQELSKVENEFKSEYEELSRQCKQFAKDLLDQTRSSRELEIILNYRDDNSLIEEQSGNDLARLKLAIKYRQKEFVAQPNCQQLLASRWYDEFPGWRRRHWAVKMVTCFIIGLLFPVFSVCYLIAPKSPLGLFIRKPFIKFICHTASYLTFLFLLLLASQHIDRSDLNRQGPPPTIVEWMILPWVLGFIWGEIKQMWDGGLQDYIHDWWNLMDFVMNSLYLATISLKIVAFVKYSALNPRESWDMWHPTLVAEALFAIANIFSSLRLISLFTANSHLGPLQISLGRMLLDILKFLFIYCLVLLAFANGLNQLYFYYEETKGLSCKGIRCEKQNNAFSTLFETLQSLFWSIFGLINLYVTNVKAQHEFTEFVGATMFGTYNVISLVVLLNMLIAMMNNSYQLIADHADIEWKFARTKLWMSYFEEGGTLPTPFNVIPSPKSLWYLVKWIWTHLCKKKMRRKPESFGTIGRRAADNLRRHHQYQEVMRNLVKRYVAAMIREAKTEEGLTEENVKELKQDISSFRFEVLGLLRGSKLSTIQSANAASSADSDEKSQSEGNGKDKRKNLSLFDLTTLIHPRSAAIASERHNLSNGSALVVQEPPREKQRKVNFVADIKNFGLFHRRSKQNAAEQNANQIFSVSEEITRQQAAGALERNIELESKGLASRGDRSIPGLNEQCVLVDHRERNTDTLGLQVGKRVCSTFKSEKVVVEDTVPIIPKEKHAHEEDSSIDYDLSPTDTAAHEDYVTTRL

[2] = biological target: NACHT, LRR and PYD domains-containing protein 3 (Homo sapiens, UniProt Q96P20); assay: NALP3 inhibitors in yeast, dose response, luminescent (AID 488799); type: functional
NACHT, LRR and PYD domains-containing protein 3, sequence (Q96P20 whole entry, the tested form may be a part): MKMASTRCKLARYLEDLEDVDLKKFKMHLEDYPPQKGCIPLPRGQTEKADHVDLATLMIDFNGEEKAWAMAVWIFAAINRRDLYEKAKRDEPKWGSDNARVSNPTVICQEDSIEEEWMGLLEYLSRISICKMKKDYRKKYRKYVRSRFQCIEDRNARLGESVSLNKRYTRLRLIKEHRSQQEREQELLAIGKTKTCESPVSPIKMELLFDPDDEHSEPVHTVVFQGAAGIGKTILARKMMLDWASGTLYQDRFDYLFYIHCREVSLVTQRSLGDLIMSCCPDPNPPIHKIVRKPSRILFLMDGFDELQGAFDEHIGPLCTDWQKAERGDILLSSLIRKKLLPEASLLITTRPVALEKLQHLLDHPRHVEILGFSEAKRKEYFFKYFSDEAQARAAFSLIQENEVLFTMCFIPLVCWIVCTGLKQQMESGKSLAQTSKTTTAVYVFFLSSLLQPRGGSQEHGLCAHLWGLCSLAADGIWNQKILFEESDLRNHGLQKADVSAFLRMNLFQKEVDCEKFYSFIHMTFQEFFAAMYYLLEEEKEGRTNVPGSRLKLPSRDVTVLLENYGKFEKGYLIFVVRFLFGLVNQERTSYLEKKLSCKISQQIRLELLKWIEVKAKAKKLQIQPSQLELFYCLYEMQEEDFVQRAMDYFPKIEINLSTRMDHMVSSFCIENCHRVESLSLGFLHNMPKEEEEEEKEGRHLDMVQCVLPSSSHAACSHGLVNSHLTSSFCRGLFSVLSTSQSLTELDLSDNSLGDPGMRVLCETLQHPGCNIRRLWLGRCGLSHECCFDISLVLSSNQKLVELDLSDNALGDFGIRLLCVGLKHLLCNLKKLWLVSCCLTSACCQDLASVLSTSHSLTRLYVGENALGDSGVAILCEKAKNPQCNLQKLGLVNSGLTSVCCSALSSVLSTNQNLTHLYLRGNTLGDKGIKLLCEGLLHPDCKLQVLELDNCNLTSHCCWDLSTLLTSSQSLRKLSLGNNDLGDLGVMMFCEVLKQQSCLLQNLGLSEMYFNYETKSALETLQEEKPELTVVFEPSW

[3] = A Cell Based Secondary Assay To Explore Cytotoxicity of Compounds that Sensitize Mycobacterium Tuberculosis to Beta-Lactam Antibiotics.; type: functional
[4] = biological target: Eukaryotic translation initiation factor 4H (Homo sapiens, UniProt Q15056); assay: eIF4H inhibition in translation initiation, SAR follow-up (AID 435011); type: functional
[5] = biological target: Polyadenylate-binding protein 1 (Homo sapiens, UniProt P11940); assay: PABP inhibition in translation initiation, SAR follow-up (AID 435018); type: functional
Polyadenylate-binding protein 1, sequence (P11940 whole entry): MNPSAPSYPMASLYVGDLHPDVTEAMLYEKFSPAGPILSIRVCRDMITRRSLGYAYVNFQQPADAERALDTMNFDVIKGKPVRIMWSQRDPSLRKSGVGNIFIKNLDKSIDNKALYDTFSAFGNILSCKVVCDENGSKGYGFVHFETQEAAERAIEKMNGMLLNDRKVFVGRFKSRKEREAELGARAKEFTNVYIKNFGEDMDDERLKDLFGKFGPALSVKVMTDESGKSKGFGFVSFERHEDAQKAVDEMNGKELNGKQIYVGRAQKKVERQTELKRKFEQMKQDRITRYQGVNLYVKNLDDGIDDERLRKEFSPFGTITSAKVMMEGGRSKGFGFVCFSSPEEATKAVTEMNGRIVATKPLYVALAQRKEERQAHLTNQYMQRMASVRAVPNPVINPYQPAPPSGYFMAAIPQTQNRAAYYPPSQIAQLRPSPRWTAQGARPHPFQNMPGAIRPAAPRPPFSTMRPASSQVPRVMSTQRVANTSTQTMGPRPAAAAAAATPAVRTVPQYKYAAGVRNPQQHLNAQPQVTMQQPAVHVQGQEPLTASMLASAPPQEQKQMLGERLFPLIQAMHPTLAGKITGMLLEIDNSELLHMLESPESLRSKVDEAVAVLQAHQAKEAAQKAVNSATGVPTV

[6] = test system: Streptococcus sp. 'group A'; assay: growth inhibition of control SK(-) GAS strain, dose response, counter-screen for streptokinase expression inhibitor project, luminescence, kanamycin, BacTiterGlo, confirmation (AID 1900); type: functional, organism-based
[7] = HepG2 cell cytotoxicity, dose response, cytotoxicity control for non-replicating M. tuberculosis project (AID 489018); type: functional; conditions: Mycobacterium tuberculosis
Streptokinase A = biological target: T2, Streptokinase A (Streptococcus pyogenes serotype M1, UniProt P10520); assay: S. pyogenes streptokinase expression inhibitors, potency, dose response, plasminogen activation absorbance, OD405 (AID 1914); type: functional, Streptococcus pyogenes M1 GAS;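 further: secreted streptokinase activity via plasminogen activation per viability signal from cell pellet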
T2 sequence (P10520 whole entry): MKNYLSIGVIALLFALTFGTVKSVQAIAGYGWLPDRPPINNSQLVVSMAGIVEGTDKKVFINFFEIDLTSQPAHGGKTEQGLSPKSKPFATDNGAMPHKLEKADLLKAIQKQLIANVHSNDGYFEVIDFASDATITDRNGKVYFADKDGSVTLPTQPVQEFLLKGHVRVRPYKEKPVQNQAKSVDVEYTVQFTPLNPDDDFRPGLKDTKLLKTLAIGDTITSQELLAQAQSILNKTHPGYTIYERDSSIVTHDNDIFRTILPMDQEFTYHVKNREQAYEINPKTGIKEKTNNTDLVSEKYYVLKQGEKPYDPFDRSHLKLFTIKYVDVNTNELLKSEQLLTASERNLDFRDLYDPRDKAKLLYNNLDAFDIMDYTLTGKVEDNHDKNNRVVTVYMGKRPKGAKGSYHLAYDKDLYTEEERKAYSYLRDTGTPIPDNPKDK

INS1 = assay: beta cell apoptosis inhibitors, cytokine rescue, dose response, luminescence, retest (AID 449756); type: functional, cell-based; conditions: Rattus norvegicus;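 further: cell death triggered by IL-1 beta plus TNF-alpha plus IFN-gamma mixture; protective hits raise ATP signal compared with cytokine alone wells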
Streptococcus = assay: Group A Streptococcus viability loss, dose response, counter-screen for streptokinase expression inhibitor project, luminescence, BacTiterGlo (AID 1915); type: functional, organism-based;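 further: potency for reduction of bacterial viability or growth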
[8] = THP-1 cell cytotoxicity, dose response, cytotoxicity control for non-replicating M. tuberculosis project (AID 489025); type: functional
[9] = Vero E6 cell cytotoxicity, dose response, cytotoxicity control for non-replicating M. tuberculosis project, secondary assay (AID 492998); type: functional, VeroE6; conditions: Vero C1008
cells = type: functional
[10] = microbe, parasite or virus in culture; type: functional; conditions: Mycobacterium tuberculosis
Nonstructural protein 1 = Nonstructural protein 1 (Influenza A virus, UniProt Q194T2); type: functional, Influenza A virus (A/California/07/2009(H1N1))
Nonstructural protein 1, sequence (Q194T2 whole entry): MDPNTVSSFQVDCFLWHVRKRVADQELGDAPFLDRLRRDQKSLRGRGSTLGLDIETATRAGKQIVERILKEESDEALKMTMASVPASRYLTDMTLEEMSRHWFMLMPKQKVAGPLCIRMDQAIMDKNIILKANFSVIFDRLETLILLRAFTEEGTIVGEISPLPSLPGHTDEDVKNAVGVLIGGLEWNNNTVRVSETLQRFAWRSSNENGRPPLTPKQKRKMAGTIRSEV

[11] = biological target: T3, Luciferin 4-monooxygenase (Photinus pyralis, UniProt P08659); assay: Counter Screen for Luciferase-based Assay Positives. [Related pubchem assays: 620, 618, 411 ]
T3 sequence (P08659 whole entry): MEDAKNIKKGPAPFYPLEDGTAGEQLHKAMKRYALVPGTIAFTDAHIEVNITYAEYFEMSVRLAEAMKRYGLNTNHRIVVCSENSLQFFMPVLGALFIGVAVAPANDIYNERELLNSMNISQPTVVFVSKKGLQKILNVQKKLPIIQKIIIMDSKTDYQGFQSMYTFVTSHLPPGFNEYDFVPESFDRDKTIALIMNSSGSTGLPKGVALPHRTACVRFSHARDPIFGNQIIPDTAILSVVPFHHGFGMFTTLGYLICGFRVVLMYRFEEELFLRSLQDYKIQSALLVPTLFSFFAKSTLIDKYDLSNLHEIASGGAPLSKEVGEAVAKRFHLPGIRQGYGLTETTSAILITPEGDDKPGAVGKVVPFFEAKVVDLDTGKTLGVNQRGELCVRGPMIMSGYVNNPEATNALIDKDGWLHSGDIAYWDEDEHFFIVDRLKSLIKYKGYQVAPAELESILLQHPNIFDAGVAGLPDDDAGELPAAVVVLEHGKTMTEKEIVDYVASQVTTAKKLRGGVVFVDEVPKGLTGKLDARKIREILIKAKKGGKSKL

[12] = biological target: T3, Luciferin 4-monooxygenase; assay: firefly luciferase enzyme inhibitors, dose response, biochemical, luminescence (AID 1891)
[13] = Luminescence Cell-Based Dose Confirmation HTS to Identify Inhibitors of Platelet Dense Granule Release. [Related pubchem assays: 1663 (Primary HTS), 1678 (Summary of Project)]; type: functional
HT-1080 = assay: cytotoxicity in HT1080 fibrosarcoma cells, cell-based, fluorescence readout (AID 620); type: functional; conditions: Homo sapiens
Vero = assay: cells; type: functional; conditions: Chlorocebus sabaeus
[14] = biological target: T1, Short transient receptor potential channel 4; assay: mouse TRPC4 channel activators, dose response, cell-based, HEK293 TRPC4/mu-opioid, Fluo-4 calcium (AID 434937); type: functional

CN(C)CCNc1ccc(Cl)cc1[N+](=O)[O-]
EC50 [1]: 0.01 µM (active)

CCC1Nc2ncnc(N3CCN(c4ccccn4)CC3)c2N(Cc2ccc(Cl)cc2)C1=O (stereo not given)
IC50 [2]: 3.16 µM (active)

OCCCn1c(C2CCCN2c2nc(-c3ccc(Cl)cc3)cs2)nc2cc(Cl)c(Cl)cc21 (stereo not given)
CC50 [3]: > 40 µM (active)

Cc1ccc(C)c(NC(=O)C2CCN(C(=O)c3cccs3)CC2)c1
IC50 [4]: > 100 µM (inactive)
IC50 [5]: > 100 µM (inactive)

COc1cc([N+](=O)[O-])ccc1NC(=O)COC(=O)c1ccc(N2CCCC2=O)cc1
IC50 [4]: > 100 µM (inactive)
IC50 [5]: > 100 µM (inactive)

O=C(Nc1ccc(Br)cc1)C1CCCN1C(=O)Oc1ccccc1 (stereo not given)
IC50 [4]: > 100 µM (inactive)
IC50 [5]: > 100 µM (inactive)

COc1ccccc1/C=N\Nc1cc(C)nc(-n2nc(C)cc2C)n1
EC50 [6]: 7.45 µM (active)
CC50 [7]: 18.3 µM (active)
EC50 (Streptokinase A): > 150 µM (not active)
AC50 (INS1): 2.92 µM (active)
EC50 (Streptococcus): 16.1 µM (active)
CC50 [8]: 5.71 µM (active)
CC50 [9]: 7.06 µM (active)
IC50 (cells): < 0.1 µM (active)

C=CCc1c(C)nc(C)nc1N/N=C/c1ccccc1O
CC50 [10]: > 40 µM (active)
IC50 (Nonstructural protein 1): 18.4 µM (active)
IC50 [2]: 45.5 µM (active)

COc1ccc(C(=O)/C=C/Nc2cccc(O)c2)cc1
EC50 [11]: 0.25 µM (active)
EC50 [12]: 0.793 µM (active)
EC50 [13]: 5.26 µM (active)
EC50 (HT-1080): > 50 µM (not active)

Cc1nc(N/C(N)=N/C(=O)NC2CCCCC2)nc2ccccc12
CC50 [7]: 17.7 µM (active)
CC50 [8]: 16.9 µM (active)
CC50 (Vero): 19.2 µM (active)
CC50 [9]: 13.3 µM (active)
EC50 [14]: 0.0667 µM (active)
IC50 (cells): 3.25 µM (active)

From ChEMBL document CHEMBL1201862, “PubChem BioAssay data set” (2004)
